Source: the kinase profiling compilation of Christmann-Franck et al. (2016)

Experiments:
Assay in all cases: radiometric filter-binding kinase assay
[1] = target: PRKAA1 PRKAB2 PRKAG1 (human) (UniProt O43741+Q13131+P54619)
SIK3 (human) = SIK3 (human) (UniProt Q9Y2K2)
[2] = system: OXSR1 (human), O95747 [T185E]
MAPK7 (human) = MAPK7 (human) (UniProt Q13164)
TSSK1B (human) = TSSK1B (human) (UniProt Q9BXA7)
ULK1 (human) = ULK1 (human) (UniProt O75385)
MARK3 (human) = MARK3 (human) (UniProt P27448)
TESK1 (human) = TESK1 (human) (UniProt Q15569)
[3] = system: TGFBR1 (human), P36897 [T204D]
WNK1 (human) = WNK1 (human) (UniProt Q9H4A3)
CHEK2 (human) = CHEK2 (human) (UniProt O96017)
PTK6 (human) = PTK6 (human) (UniProt Q13882)
TLK1 (human) = TLK1 (human) (UniProt Q9UKI8)
STK24 (human) = STK24 (human) (UniProt Q9Y6E0)
MAP4K5 (human) = MAP4K5 (human) (UniProt Q9Y4K4)
TTBK2 (human) = TTBK2 (human) (UniProt Q6IQ55)
ULK2 (human) = ULK2 (human) (UniProt Q8IYT8)
TEK (human) = TEK (human) (UniProt Q02763)
ABL1 (human) = ABL1 (human) (UniProt P00519)
CDK9 CCNT1 (human) = CDK9 CCNT1 (human) (UniProt P50750+O60563)
IRAK1 (human) = IRAK1 (human) (UniProt P51617)
PDGFRA (human) = PDGFRA (human) (UniProt P16234)
SIK2 (human) = SIK2 (human) (UniProt Q9H0K1)
CSNK1G2 (human) = CSNK1G2 (human) (UniProt P78368)
ZAP70 (human) = ZAP70 (human) (UniProt P43403)
STK16 (human) = STK16 (human) (UniProt O75716)
DDR2 (human) = DDR2 (human) (UniProt Q16832)
TTBK1 (human) = TTBK1 (human) (UniProt Q5TCY1)
EIF2AK3 (human) = EIF2AK3 (human) (UniProt Q9NZJ5)
MAP4K3 (human) = MAP4K3 (human) (UniProt Q8IVH8)
STK33 (human) = STK33 (human) (UniProt Q9BYT3)
PRKCG (human) = PRKCG (human) (UniProt P05129)

Chain of PDGFRA (human) (P16234 whole entry, looked up): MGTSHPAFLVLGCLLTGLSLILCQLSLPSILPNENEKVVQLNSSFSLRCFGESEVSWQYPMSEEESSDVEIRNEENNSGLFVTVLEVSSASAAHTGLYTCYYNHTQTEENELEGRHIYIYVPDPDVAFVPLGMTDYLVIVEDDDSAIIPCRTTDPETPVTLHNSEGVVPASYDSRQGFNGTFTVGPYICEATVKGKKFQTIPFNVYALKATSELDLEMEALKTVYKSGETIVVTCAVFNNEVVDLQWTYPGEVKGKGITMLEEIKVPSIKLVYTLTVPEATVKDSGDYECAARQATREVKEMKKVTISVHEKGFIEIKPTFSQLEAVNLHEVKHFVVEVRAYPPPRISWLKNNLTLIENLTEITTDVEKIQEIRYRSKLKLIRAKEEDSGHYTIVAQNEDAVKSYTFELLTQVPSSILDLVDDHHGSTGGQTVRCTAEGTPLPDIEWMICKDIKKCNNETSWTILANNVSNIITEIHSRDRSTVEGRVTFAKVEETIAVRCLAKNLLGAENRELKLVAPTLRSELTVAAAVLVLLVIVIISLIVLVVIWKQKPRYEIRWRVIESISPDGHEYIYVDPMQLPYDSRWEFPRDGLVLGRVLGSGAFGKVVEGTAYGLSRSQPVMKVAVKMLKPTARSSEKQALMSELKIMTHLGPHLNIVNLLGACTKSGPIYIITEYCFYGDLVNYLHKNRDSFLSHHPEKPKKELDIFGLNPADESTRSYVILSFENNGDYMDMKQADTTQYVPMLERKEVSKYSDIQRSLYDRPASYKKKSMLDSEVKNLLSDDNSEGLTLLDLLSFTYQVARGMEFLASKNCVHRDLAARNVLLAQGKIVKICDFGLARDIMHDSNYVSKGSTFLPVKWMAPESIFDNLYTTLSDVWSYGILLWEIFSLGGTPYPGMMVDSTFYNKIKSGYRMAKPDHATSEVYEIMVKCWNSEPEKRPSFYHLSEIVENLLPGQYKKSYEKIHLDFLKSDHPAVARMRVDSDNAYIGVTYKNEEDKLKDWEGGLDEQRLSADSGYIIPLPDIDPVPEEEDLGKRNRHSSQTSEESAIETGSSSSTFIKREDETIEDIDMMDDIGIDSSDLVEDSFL
Chain of TTBK2 (human) (Q6IQ55 whole entry, looked up): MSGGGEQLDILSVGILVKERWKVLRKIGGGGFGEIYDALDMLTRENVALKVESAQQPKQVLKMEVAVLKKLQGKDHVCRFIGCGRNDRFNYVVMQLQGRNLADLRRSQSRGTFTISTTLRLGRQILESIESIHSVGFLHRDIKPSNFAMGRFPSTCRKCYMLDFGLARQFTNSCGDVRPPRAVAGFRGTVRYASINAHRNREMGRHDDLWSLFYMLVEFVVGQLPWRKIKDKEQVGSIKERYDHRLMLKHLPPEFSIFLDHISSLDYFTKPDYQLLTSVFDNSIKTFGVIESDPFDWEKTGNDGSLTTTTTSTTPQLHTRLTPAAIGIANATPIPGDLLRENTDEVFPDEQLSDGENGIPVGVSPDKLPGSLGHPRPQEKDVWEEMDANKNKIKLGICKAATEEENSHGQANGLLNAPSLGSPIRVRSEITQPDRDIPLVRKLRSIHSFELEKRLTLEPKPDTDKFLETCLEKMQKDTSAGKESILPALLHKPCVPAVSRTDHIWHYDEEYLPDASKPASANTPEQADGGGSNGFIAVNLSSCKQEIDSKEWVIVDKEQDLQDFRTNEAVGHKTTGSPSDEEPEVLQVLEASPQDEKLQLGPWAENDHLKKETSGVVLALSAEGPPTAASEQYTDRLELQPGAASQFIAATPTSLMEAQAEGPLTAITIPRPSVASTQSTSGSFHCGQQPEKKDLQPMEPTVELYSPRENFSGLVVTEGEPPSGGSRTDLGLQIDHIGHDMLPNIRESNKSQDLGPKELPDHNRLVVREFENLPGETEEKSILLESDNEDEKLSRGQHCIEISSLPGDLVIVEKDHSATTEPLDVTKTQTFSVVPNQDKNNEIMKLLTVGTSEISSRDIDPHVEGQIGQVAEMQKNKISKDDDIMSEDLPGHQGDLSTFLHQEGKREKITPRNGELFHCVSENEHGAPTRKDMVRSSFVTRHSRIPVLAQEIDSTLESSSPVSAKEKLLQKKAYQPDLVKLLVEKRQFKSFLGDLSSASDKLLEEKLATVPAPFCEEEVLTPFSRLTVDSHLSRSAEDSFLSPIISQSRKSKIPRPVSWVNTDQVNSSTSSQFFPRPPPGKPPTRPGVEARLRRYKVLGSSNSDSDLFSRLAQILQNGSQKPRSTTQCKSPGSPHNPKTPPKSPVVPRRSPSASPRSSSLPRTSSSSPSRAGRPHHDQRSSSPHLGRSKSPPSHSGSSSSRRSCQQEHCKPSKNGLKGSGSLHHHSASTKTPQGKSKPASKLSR
Chain of OXSR1 (human), O95747 [T185E] (O95747 whole entry T185E, looked up): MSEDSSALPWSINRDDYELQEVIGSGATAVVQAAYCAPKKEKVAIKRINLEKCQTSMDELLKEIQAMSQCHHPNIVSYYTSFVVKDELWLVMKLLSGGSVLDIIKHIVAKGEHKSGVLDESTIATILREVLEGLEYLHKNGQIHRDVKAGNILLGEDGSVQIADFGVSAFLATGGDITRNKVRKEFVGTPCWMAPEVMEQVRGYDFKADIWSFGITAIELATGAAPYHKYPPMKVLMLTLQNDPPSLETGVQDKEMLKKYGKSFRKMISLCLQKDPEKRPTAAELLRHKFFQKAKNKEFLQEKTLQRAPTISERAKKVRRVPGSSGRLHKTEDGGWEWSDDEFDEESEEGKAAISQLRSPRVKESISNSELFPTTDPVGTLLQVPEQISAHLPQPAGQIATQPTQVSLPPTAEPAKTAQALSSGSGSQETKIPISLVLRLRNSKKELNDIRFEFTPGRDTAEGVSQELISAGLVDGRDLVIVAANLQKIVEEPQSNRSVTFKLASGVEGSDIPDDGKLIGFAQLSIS
Chain of CSNK1G2 (human) (P78368 whole entry, looked up): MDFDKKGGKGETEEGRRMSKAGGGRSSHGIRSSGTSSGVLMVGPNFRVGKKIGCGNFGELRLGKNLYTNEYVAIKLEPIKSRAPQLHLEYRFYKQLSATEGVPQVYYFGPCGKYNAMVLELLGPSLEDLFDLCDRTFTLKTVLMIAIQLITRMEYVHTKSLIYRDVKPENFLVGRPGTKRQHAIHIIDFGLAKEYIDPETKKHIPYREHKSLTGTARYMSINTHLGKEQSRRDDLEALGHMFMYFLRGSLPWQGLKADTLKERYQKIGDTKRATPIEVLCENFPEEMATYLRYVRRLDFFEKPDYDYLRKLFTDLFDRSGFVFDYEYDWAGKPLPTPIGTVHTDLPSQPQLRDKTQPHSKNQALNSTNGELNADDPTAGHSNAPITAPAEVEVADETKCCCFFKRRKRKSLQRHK
Chain of ULK2 (human) (Q8IYT8 whole entry, looked up): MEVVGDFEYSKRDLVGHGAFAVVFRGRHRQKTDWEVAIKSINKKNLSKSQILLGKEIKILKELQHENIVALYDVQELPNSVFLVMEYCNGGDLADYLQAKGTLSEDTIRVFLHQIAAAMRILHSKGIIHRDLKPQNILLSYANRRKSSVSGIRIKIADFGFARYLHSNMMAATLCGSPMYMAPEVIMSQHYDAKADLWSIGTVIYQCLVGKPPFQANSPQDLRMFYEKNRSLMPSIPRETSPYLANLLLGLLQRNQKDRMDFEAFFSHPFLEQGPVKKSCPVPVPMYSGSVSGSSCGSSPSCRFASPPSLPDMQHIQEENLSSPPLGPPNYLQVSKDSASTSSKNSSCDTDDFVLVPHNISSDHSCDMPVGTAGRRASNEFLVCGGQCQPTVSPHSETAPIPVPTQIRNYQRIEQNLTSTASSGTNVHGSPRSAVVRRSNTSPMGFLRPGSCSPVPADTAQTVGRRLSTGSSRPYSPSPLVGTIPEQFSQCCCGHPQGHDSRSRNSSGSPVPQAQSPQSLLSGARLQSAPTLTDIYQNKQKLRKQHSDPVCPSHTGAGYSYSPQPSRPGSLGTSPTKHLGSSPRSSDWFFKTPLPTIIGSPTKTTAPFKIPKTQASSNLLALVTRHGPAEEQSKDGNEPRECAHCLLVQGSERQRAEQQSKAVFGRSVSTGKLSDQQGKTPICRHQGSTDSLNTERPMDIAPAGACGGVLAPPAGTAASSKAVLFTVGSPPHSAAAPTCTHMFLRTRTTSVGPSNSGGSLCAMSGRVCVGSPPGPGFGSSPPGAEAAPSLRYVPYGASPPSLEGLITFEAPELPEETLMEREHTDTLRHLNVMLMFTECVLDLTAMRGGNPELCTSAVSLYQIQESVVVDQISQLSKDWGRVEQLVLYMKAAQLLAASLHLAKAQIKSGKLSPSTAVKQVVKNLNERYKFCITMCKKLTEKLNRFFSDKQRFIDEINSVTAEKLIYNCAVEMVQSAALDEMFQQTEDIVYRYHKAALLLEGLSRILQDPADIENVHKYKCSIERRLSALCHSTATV
Chain of TSSK1B (human) (Q9BXA7 whole entry, looked up): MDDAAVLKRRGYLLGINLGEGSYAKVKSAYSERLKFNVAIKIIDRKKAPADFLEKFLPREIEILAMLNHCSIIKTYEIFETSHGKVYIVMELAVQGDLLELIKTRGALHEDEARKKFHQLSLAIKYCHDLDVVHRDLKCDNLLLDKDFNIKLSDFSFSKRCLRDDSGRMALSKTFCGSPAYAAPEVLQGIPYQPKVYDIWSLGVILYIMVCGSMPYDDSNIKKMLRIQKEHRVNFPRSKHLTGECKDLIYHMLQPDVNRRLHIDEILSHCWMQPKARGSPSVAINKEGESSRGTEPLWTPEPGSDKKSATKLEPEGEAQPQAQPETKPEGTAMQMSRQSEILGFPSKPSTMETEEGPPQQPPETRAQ
Chain of STK16 (human) (O75716 whole entry, looked up): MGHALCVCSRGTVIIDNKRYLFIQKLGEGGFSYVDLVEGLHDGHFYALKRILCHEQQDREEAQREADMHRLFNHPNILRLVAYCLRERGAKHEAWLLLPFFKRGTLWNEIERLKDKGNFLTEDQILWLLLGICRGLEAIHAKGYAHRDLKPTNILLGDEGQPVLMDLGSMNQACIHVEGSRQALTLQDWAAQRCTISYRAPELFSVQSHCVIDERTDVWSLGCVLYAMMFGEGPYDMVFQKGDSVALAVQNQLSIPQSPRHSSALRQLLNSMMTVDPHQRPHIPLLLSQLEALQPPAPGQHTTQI

A residual activity ([1]; compound 1.0 µM) of 82%, a residual activity ([1]; compound 10.0 µM) of 44% and a residual activity (SIK3 (human); compound 1.0 µM) of 95% were found for `COc1cc(C(=O)N2CCOCC2)c(F)cc1Nc1ncc(C(F)(F)F)c(NC2CC2)n1` in this work. It also gave a residual activity (SIK3 (human); compound 10.0 µM) of 93%, a residual activity ([2]; compound 1.0 µM) of 95% and a residual activity ([2]; compound 10.0 µM) of 51%. It also gave a residual activity (MAPK7 (human); compound 1.0 µM) of 66%, a residual activity (MAPK7 (human); compound 10.0 µM) of 42% and a residual activity (TSSK1B (human); compound 1.0 µM) of 31%. The residual activity (TSSK1B (human); compound 10.0 µM) was 7%, the residual activity (ULK1 (human); compound 1.0 µM) was 98% and the residual activity (ULK1 (human); compound 10.0 µM) was 56%. For the same compound, the residual activity (MARK3 (human); compound 1.0 µM) was 91%, the residual activity (MARK3 (human); compound 10.0 µM) was 61% and the residual activity (TESK1 (human); compound 1.0 µM) was 102%. For the same compound, the residual activity (TESK1 (human); compound 10.0 µM) was 118%, the residual activity ([3]; compound 1.0 µM) was 99% and the residual activity ([3]; compound 10.0 µM) was 103%. For the same compound, the residual activity (WNK1 (human); compound 1.0 µM) was 97%, the residual activity (WNK1 (human); compound 10.0 µM) was 106% and the residual activity (CHEK2 (human); compound 1.0 µM) was 18%. The residual activity (CHEK2 (human); compound 10.0 µM) was 3%, the residual activity (PTK6 (human); compound 1.0 µM) was 53% and the residual activity (PTK6 (human); compound 10.0 µM) was 22%. For the same compound, the residual activity (TLK1 (human); compound 1.0 µM) was 106%, the residual activity (TLK1 (human); compound 10.0 µM) was 96% and the residual activity (STK24 (human); compound 1.0 µM) was 96%. The residual activity (STK24 (human); compound 10.0 µM) was 85%, the residual activity (MAP4K5 (human); compound 1.0 µM) was 107% and the residual activity (MAP4K5 (human); compound 10.0 µM) was 91%. The residual activity (TTBK2 (human); compound 1.0 µM) was 91%, the residual activity (TTBK2 (human); compound 10.0 µM) was 97% and the residual activity (ULK2 (human); compound 1.0 µM) was 88%. It also gave a residual activity (ULK2 (human); compound 10.0 µM) of 70%, a residual activity (TEK (human); compound 1.0 µM) of 85% and a residual activity (TEK (human); compound 10.0 µM) of 91%. For the same compound, the residual activity (ABL1 (human); compound 1.0 µM) was 106%, the residual activity (ABL1 (human); compound 10.0 µM) was 97% and the residual activity (CDK9 CCNT1 (human); compound 1.0 µM) was 87%. It also gave a residual activity (CDK9 CCNT1 (human); compound 10.0 µM) of 90%, a residual activity (IRAK1 (human); compound 1.0 µM) of 98% and a residual activity (IRAK1 (human); compound 10.0 µM) of 94%. It also gave a residual activity (PDGFRA (human); compound 1.0 µM) of 81%, a residual activity (PDGFRA (human); compound 10.0 µM) of 76% and a residual activity (SIK2 (human); compound 1.0 µM) of 84%. For the same compound, the residual activity (SIK2 (human); compound 10.0 µM) was 34%, the residual activity (CSNK1G2 (human); compound 1.0 µM) was 90% and the residual activity (CSNK1G2 (human); compound 10.0 µM) was 89%. The residual activity (ZAP70 (human); compound 1.0 µM) was 88%, the residual activity (ZAP70 (human); compound 10.0 µM) was 86% and the residual activity (STK16 (human); compound 1.0 µM) was 115%. For the same compound, the residual activity (STK16 (human); compound 10.0 µM) was 101%, the residual activity (DDR2 (human); compound 1.0 µM) was 105% and the residual activity (DDR2 (human); compound 10.0 µM) was 100%. It also gave a residual activity (TTBK1 (human); compound 1.0 µM) of 96%, a residual activity (TTBK1 (human); compound 10.0 µM) of 93% and a residual activity (EIF2AK3 (human); compound 1.0 µM) of 87%. It also gave a residual activity (EIF2AK3 (human); compound 10.0 µM) of 82%, a residual activity (MAP4K3 (human); compound 1.0 µM) of 76% and a residual activity (MAP4K3 (human); compound 10.0 µM) of 36%. It also gave a residual activity (STK33 (human); compound 1.0 µM) of 47% and a residual activity (STK33 (human); compound 10.0 µM) of 30%.

A residual activity ([1]; compound 1.0 µM) of 106%, a residual activity ([1]; compound 10.0 µM) of 102% and a residual activity (SIK3 (human); compound 1.0 µM) of 91% were found for `Nc1cccc2c1CN(C1CCC(=O)NC1=O)C2=O` (stereo not given) in this work. The residual activity (SIK3 (human); compound 10.0 µM) was 94%, the residual activity ([2]; compound 1.0 µM) was 91% and the residual activity ([2]; compound 10.0 µM) was 112%. It also gave a residual activity (MAPK7 (human); compound 1.0 µM) of 98%, a residual activity (MAPK7 (human); compound 10.0 µM) of 107% and a residual activity (TSSK1B (human); compound 1.0 µM) of 89%. For the same compound, the residual activity (TSSK1B (human); compound 10.0 µM) was 100%, the residual activity (ULK1 (human); compound 1.0 µM) was 104% and the residual activity (ULK1 (human); compound 10.0 µM) was 103%. For the same compound, the residual activity (MARK3 (human); compound 1.0 µM) was 91%, the residual activity (MARK3 (human); compound 10.0 µM) was 94% and the residual activity (TESK1 (human); compound 1.0 µM) was 77%. The residual activity (TESK1 (human); compound 10.0 µM) was 77%, the residual activity ([3]; compound 1.0 µM) was 105% and the residual activity ([3]; compound 10.0 µM) was 115%. For the same compound, the residual activity (WNK1 (human); compound 1.0 µM) was 104%, the residual activity (WNK1 (human); compound 10.0 µM) was 106% and the residual activity (CHEK2 (human); compound 1.0 µM) was 96%. The residual activity (CHEK2 (human); compound 10.0 µM) was 93%, the residual activity (PTK6 (human); compound 10.0 µM) was 114% and the residual activity (TLK1 (human); compound 1.0 µM) was 95%. For the same compound, the residual activity (TLK1 (human); compound 10.0 µM) was 106%, the residual activity (STK24 (human); compound 1.0 µM) was 82% and the residual activity (STK24 (human); compound 10.0 µM) was 84%. The residual activity (MAP4K5 (human); compound 1.0 µM) was 109%, the residual activity (MAP4K5 (human); compound 10.0 µM) was 115% and the residual activity (TTBK2 (human); compound 10.0 µM) was 101%. It also gave a residual activity (ULK2 (human); compound 1.0 µM) of 106%, a residual activity (ULK2 (human); compound 10.0 µM) of 105% and a residual activity (ABL1 (human); compound 1.0 µM) of 96%. For the same compound, the residual activity (ABL1 (human); compound 10.0 µM) was 101%, the residual activity (IRAK1 (human); compound 1.0 µM) was 96% and the residual activity (IRAK1 (human); compound 10.0 µM) was 101%. The residual activity (PDGFRA (human); compound 1.0 µM) was 85%, the residual activity (PDGFRA (human); compound 10.0 µM) was 82% and the residual activity (SIK2 (human); compound 1.0 µM) was 83%. It also gave a residual activity (SIK2 (human); compound 10.0 µM) of 91%, a residual activity (CSNK1G2 (human); compound 1.0 µM) of 99% and a residual activity (CSNK1G2 (human); compound 10.0 µM) of 90%. It also gave a residual activity (ZAP70 (human); compound 1.0 µM) of 110%, a residual activity (ZAP70 (human); compound 10.0 µM) of 116% and a residual activity (STK16 (human); compound 1.0 µM) of 98%. For the same compound, the residual activity (STK16 (human); compound 10.0 µM) was 100%, the residual activity (DDR2 (human); compound 1.0 µM) was 102% and the residual activity (DDR2 (human); compound 10.0 µM) was 102%. The residual activity (TTBK1 (human); compound 1.0 µM) was 106%, the residual activity (TTBK1 (human); compound 10.0 µM) was 118% and the residual activity (EIF2AK3 (human); compound 1.0 µM) was 86%. The residual activity (EIF2AK3 (human); compound 10.0 µM) was 101%, the residual activity (PRKCG (human); compound 1.0 µM) was 108% and the residual activity (PRKCG (human); compound 10.0 µM) was 112%. For the same compound, the residual activity (MAP4K3 (human); compound 1.0 µM) was 100%, the residual activity (MAP4K3 (human); compound 10.0 µM) was 110% and the residual activity (STK33 (human); compound 1.0 µM) was 128%. For the same compound, the residual activity (STK33 (human); compound 10.0 µM) was 119%.

A residual activity ([1]; compound 0.1 µM) of 102%, a residual activity (SIK3 (human); compound 0.1 µM) of 92% and a residual activity ([2]; compound 0.1 µM) of 102% were found for `CN1CCN(CCOc2cc(OC3CCOCC3)c3c(Nc4c(Cl)ccc5c4OCO5)ncnc3c2)CC1` in this work. It also gave a residual activity (MAPK7 (human); compound 0.1 µM) of 90%, a residual activity (TSSK1B (human); compound 0.1 µM) of 115% and a residual activity (ULK1 (human); compound 0.1 µM) of 99%. For the same compound, the residual activity (MARK3 (human); compound 0.1 µM) was 99%, the residual activity (TESK1 (human); compound 0.1 µM) was 94% and the residual activity ([3]; compound 0.1 µM) was 90%. It also gave a residual activity (WNK1 (human); compound 0.1 µM) of 99%, a residual activity (CHEK2 (human); compound 0.1 µM) of 112% and a residual activity (PTK6 (human); compound 0.1 µM) of 31%. The residual activity (TLK1 (human); compound 0.1 µM) was 107%, the residual activity (STK24 (human); compound 0.1 µM) was 102% and the residual activity (MAP4K5 (human); compound 0.1 µM) was 70%. The residual activity (TTBK2 (human); compound 0.1 µM) was 94%, the residual activity (ULK2 (human); compound 0.1 µM) was 109% and the residual activity (ABL1 (human); compound 0.1 µM) was 26%. For the same compound, the residual activity (CDK9 CCNT1 (human); compound 0.1 µM) was 100%, the residual activity (IRAK1 (human); compound 0.1 µM) was 84% and the residual activity (PDGFRA (human); compound 0.1 µM) was 101%. The residual activity (SIK2 (human); compound 0.1 µM) was 51%, the residual activity (CSNK1G2 (human); compound 0.1 µM) was 107% and the residual activity (ZAP70 (human); compound 0.1 µM) was 122%. The residual activity (STK16 (human); compound 0.1 µM) was 108%, the residual activity (DDR2 (human); compound 0.1 µM) was 20% and the residual activity (EIF2AK3 (human); compound 0.1 µM) was 111%. The residual activity (PRKCG (human); compound 0.1 µM) was 103%, the residual activity (MAP4K3 (human); compound 0.1 µM) was 85% and the residual activity (STK33 (human); compound 0.1 µM) was 105%.
